# Where two headings read alike, the source gives them in different places.
# Columns and labels:
# Ad4 (E) = assay: Quantitative real-time PCR of adenovirus DNA replication in A549 cells (Ad4); assay type: cell-based; conditions: Human adenovirus sp., read-out: % inhibition of DNA replication (SD)
# Description: (§1) Approximately 1×10^5 A549 cells were seeded in 24-well plates (Nunc) on the day before infection. On the day of infection, the cells in one well were counted to establish the amount of virions to be added. The growth medium was removed and compound and virus were added simultaneously to the cells in 700 μl DMEM with 0.75 g/l NaHCO3, 20 mM HEPES, 1×PEST, and 1% FBS. Compounds were added in concentrations ranging from 0.5 μM to 15 μM. The final concentration of DMSO was less than 1% in all samples. One pg of Ad virions was added per cell. The plate was incubated at 37° C. in 5% CO2 and 24 h after infection the cells were harvested, washed once, and resuspended in PBS. […] The design of primers and probes for analysis of various Ad types representing different adenovirus species with quantitative PCR has been described previously (Allard et al. 2001. Rapid typing of human adenoviruses by a general PCR combined with restriction endonuclease analysis. Journal Clinical Microbiology 39:498-505). Briefly, quantitative real-time PCR was carried out using a degenerate primer pair, Kadgen1 (forward)—Kadgen 2 (reverse) (5′-CWT ACA TGC ACA TCK CSG G-3′—SEQ ID NO:1, and 5′-CRC GGG CRA AYT GCA CCA G-3′—SEQ ID NO:2, respectively); DNA technology A/S, Aarhus, Denmark). […] Real-time PCR was performed in an ABI PRISM 7700 Sequence Detector (Applied Biosystems) and analyzed with Sequence Detector v1.7a software.
# cells = assay: Cellular toxicity of select compounds (% dead cells, CC50); assay type: cell-based; conditions: 24 h
# Ad11p hexon protein = assay: FACS analysis of Ad11p hexon protein expression in A549 cells; assay type: cell-based, human adenovirus; conditions: 24 h
# Description: FIG. 4. A. Binding of ^35S-labelled Ad5 to A549 cells in the presence of A02. Error bars represent the standard deviation of the means from three independent duplicate experiments. B. Flowcytometry assay detecting Ad5 (grey bars) and Ad11 (checkered bars) hexon protein following 24 h incubation with virus and compound A02. Error bars represent the standard deviation of the means from two independent duplicate experiments.
# A binding assay using isotope-labeled virions was used to address whether the compound would prevent viral adhesion to host cells. At 15 μM, compound A02 has no effect on Ad5 binding to the surface of A549 cells (FIG. 4A). To further verify inhibition of viral replication, the effect on the expression of the most abundant viral structural protein (hexon) in A549 cells was studied by FACS analysis.
# Ad5 = assay: microbe, parasite or virus in culture; assay type: cell-based, human adenovirus
# HIV integrase = HIV integrase (Human immunodeficiency virus type 1 group M subtype B, UniProt P04585); conditions: US 2006/0035245; cited from earlier work
# [1] = Toxicity in the A549 cell system (XTT assay); assay type: cell-based; conditions: human, A549 cells, read-out: 50% cytotoxic concentration (CC50)
# Description: FIG. 3. Titration of the effect of A02 on Ad5, Ad11p and the toxic effect in A549 cells following 24 h incubation with virus and/or compound A02. […] IC50 is the concentration at which the Ad replication is inhibited by 50% as determined by qPCR and CC50 is the concentration at which the cytotoxicity is 50%, i.e. 50% of the cells are viable, as determined by the XTT assay. Error bars represent the standard deviation of the means from three independent duplicate experiments.
# Ad41 (F) = assay: Quantitative real-time PCR of adenovirus DNA replication in A549 cells (Ad41); assay type: cell-based; conditions: Human adenovirus sp., read-out: % inhibition of DNA replication (SD)
# Description: as §1
# Ad11p = assay: Quantitative real-time PCR of adenovirus DNA replication in A549 cells (Ad11p); assay type: cell-based, human adenovirus
# Description: Approximately 1×10^5 A549 cells were seeded in 24-well plates (Nunc) on the day before infection. On the day of infection, the cells in one well were counted to establish the amount of virions to be added. The growth medium was removed and compound and virus were added simultaneously to the cells in 700 μl DMEM with 0.75 g/l NaHCO3, 20 mM HEPES, 1×PEST, and 1% FBS. Compounds were added in concentrations ranging from 0.5 μM to 15 μM. The final concentration of DMSO was less than 1% in all samples. One pg of Ad virions was added per cell. The plate was incubated at 37° C. in 5% CO2 and 24 h after infection the cells were harvested, washed once, and resuspended in PBS. DNA was prepared from the samples using the QIAamp DNA Blood Mini Kit (QIAGEN, Solna, Sweden) according to the manufacturer's instructions. The design of primers and probes for analysis of various Ad types representing different adenovirus species with quantitative PCR has been described previously (Allard et al. 2001. Rapid typing of human adenoviruses by a general PCR combined with restriction endonuclease analysis. Journal Clinical Microbiology 39:498-505). Briefly, quantitative real-time PCR was carried out using a degenerate primer pair, Kadgen1 (forward)—Kadgen 2 (reverse) (5′-CWT ACA TGC ACA TCK CSG G-3′—SEQ ID NO:1, and 5′-CRC GGG CRA AYT GCA CCA G-3′—SEQ ID NO:2, respectively); DNA technology A/S, Aarhus, Denmark). This primer pair is specific for the conserved region of the Ad hexon gene and can detect all human Ads. Different FAM-TAMRA probes were used to quantitate Ads from different species: AdB1B2 (5′-6-FAM-AGGATGCTTCGGAGTACCTGAGTCCGG-TAMRA-3′—SEQ ID NO:3) for Ad11p (11) and AdC (5′-6-FAM-AGGACGCCTCGGAGTACCTGAGCCCCG-TAMRA-3′—SEQ ID NO:4) for Ad 5 (all from Applied Biosystems, Cheshire, UK). For Ads from species A, D, E and F the probe AdDF (5′-6-FAM-CCGGGCTCAGGTACTCCGAGGCGTCCT-3′—SEQ ID NO:5) was used (Applied Biosystems). Standard curves ranging from 5 to 5×10^5 genome copies were generated by serial dilution of known amounts of full-length Ad5 or Ad11 DNA. The Ad5 DNA standard was used for the AdDF probe system. […] The program for the real-time PCR was: 2 min at 50° C. to activate UNG, followed by amplification and quantitation (10 min at 95° C. and 40 cycles of 15 sec at 95° C., 1 min at 60° C.). […] Real-time PCR was performed in an ABI PRISM 7700 Sequence Detector (Applied Biosystems) and analyzed with Sequence Detector v1.7a software.
# Ad37 (D) = assay: Quantitative real-time PCR of adenovirus DNA replication in A549 cells (Ad37); assay type: cell-based; conditions: Human adenovirus sp., read-out: % inhibition of DNA replication (SD)
# Description: as §1
# [2] = Human adenovirus sp., A549, read-out: % inhibition of DNA replication (SD)
smiles,measurement,setting,value
"O=C(Nc1ccccc1C(=O)Nc1ccccc1C(=O)O)c1ccccc1 [Compound A02, 2-[[2-(Benzoylamino)benzoyl]amino]-benzoic acid]",inhibition at 5 µM,Ad4 (E); 5 μM,85%
same,inhibition at 15 µM,Ad4 (E); 15 μM,96%
same,Toxicity at 30 μM (% dead cells after 24 h),cells; 30 μM,20 ± 7%
same,Toxicity at 60 μM (% dead cells after 24 h),cells; 60 μM,29 ± 3%
same,expression of Ad11p hexon protein,Ad11p hexon protein,inhibited by compound A02 in a dose-dependent manner
same,effect on the replication of Ad5 (QPCR),Ad5; A549 cells,significant inhibitory effect
same,selectivity index (SI=CC50/IC50) for Ad5,Ad5; A549 cells,54
same,IC50,"Ad5; Human adenovirus sp., A549, 24 h, read-out: IC50 for Ad5 replication (QPCR)",3.7 µM
same,inhibition at 5 µM,Ad5; [2],72%
same,inhibition at 15 µM,Ad5; [2],86%
same,EC50,"Ad5; unidentified adenovirus, A549",3.7 µM
same,inhibition at 5 µM,"Ad5; unidentified adenovirus, A549, read-out: % Inh. at 5 μM",89 ± 5%
same,inhibition at 15 µM,"Ad5; unidentified adenovirus, A549, read-out: % Inh. at 15 μM",96 ± 1%
same,inhibition of HIV integrase,HIV integrase,failed to inhibit
same,CC50 at 24 h,[1],199 µM
same,inhibition at 5 µM,Ad41 (F); 5 μM,80%
same,inhibition at 15 µM,Ad41 (F); 15 μM,88%
same,selectivity index (SI=CC50/IC50) for Ad11p,Ad11p,68
same,IC50,"Ad11p; Human adenovirus sp., 24 h, read-out: IC50 for Ad11p replication (QPCR)",2.9 µM
same,inhibition at 5 µM,"Ad11p; Human adenovirus sp., Ad11p (B2), 5 μM, read-out: % inhibition of DNA replication (SD)",79%
same,inhibition at 15 µM,"Ad11p; Human adenovirus sp., Ad11p (B2), 15 μM, read-out: % inhibition of DNA replication (SD)",79%
same,inhibition at 5 µM,Ad37 (D); 5 μM,86%
same,inhibition at 15 µM,Ad37 (D); 15 μM,94%
